Assay results reported in patent publication US20250057813A1, “APOPTOSIS RELATED PROTEIN IN THE TGF-BETA SIGNALING PATHWAY (ARTS) MIMETIC COMPOUNDS, COMPOSITIONS, METHODS AND USES THEREOF IN INDUCTION OF APOPTOSIS” (Carmel-Haifa University Economic Corporation Ltd., priority 2022, published 2025).
“Also recorded” adds a separate entry of the source.

Key:
binding of XIAP to Bcl-2 = target: T1, binding of XIAP to Bcl-2 (Homo sapiens, UniProt P10415+P98170); assay: BiFC assay in A375 melanoma cells (Bcl-2-VC and XIAP-VN); type: cell-based; conditions: 20 μM B3, 24 h
T1 construct: expressed in transfected cells; host or cells: A375 melanoma cells
T1 sequence (P98170 whole entry): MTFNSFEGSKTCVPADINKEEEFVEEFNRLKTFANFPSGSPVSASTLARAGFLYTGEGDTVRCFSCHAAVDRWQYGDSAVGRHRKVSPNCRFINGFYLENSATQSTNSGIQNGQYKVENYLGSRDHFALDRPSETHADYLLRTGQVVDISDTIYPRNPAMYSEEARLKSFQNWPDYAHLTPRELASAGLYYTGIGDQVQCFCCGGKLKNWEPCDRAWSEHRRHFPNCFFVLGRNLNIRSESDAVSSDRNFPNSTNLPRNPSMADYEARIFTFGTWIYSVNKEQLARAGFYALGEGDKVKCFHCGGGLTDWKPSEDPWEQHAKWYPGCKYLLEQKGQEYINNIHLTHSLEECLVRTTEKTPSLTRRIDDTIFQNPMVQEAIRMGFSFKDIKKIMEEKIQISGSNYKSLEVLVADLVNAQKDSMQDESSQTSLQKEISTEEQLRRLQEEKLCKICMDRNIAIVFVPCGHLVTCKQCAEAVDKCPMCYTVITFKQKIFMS
T1 sequence (P10415 whole entry): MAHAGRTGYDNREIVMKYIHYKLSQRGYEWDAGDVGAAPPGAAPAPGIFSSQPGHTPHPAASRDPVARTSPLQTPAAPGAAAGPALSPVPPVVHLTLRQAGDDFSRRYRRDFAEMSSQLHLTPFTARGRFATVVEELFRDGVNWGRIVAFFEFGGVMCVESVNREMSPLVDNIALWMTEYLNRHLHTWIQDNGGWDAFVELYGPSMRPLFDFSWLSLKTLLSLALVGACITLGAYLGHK
Excerpt: (§1) The split-Venus BiFC system was used to evaluate close proximity indicating possible direct binding between pairs of proteins. The proteins were fused either to the N-terminal part of the Venus-YFP (yellow fluorescence protein) (VN) or the C-terminal part (VC). All Venus fragments were fused to the C-terminal sequences of these proteins. The Jun and Fos pair was used as a positive control (P.C.), and the Jun and FosdeltaZIP pair was used as a negative control (N.C.). A vector encoding dsRed was used as a transfection efficiency marker. Cells were seeded in 12 well plates overnight. Cells were then transfected with (Bcl-2-VC, ARTS-VN, XIAP-VN and XIAP-VC) for 24-36 hours. Cells were then treated with apoptotic inducing reagents for 24 hrs.

93 cancer cell lines = assay: Viability assay (SRB), cancer cell line screen; type: cell-based; conditions: 72 hrs, 10 mM to 0.1 μM
Description: (§2) The assay was performed at six tenfold serial dilutions of the B3 compounds: 10 mM (stock), 1 mM, 100 μM, 10 μM, 1 μM and 0.1 μM. The screen was performed on 93 cancer cell lines and PBMC as normal cell control. The B3 compound was incubated with the cells for 72 hours. The following cancer cell lines were screened:
(§3) The Sulforhodamine B (SRB) assay was used as a screening method. Briefly, the method relies on the property of SRB, to bind stoichiometrically to proteins under mild acidic conditions and to be extracted under basic conditions. Thus, the amount of bound dye can be used as a proxy for cell mass, which can then be extrapolated to measure cell proliferation. The protocol can be divided into four main steps: preparation of treatment, incubation of cells with treatment of choice, cell fixation and SRB staining and absorbance measurement.

A-375 cells = assay: Viability assay (SRB), cancer cell line screen; type: cell-based; conditions: Homo sapiens; A-375, 72 hours incubation; read-out: GI50 score
Description: as §2, §3

[1] = tested on: A375 human melanoma cells; assay: SDS PAGE and Western blot analysis of A375 cells; type: cell-based
Description: The cells were lysed in WCE (whole-cell extract) buffer [25 mM Hepes, pH 7.7, 0.3M NaCl, 1.5 mM MgCl2, 0.2 mM EDTA, 0.1% Triton X-100, 100[μg/ml PMSF and protease inhibitor cocktail (Roche, 1:100 dilution)]. 100 μg of total cell protein, measured with the Bio-Rad Protein Assay kit, were separated by SDS-PAGE (12%) followed by transfer for 2 h on to a nitrocellulose membrane. The membrane was blocked with 5% (w/v) non-fat dried skimmed milk powder in PBS supplemented with 0.05% Tween20 (PBS-T) for 1 hour at room temperature (R.T). Membrane was then probed with primary antibody at 4° C. overnight. Next, the membrane was incubated with the appropriate HRP-conjugated secondary antibody, for 1 hour at R.T. and washed 15 min ×3 with PBS-T. WesternBright ECL (Advansta) was added to the membrane for 2 min and analyzed using ImageQuant LAS-4000 analyzer (GE Healthcare Life Sciences) & “ImageQuant LAS-4000” software (GE Healthcare Life Sciences). Densitometry analysis was performed using ImageQuant total lab 7 (GE Healthcare Life Sciences), image analysis software.
Cells were lysed in whole-cell extract buffer [25 mM HEPES, pH 7.7, […], 1.5 mM MgCl2, 0.2 mM EDTA, 0.1% Triton X-100, 100 μg/ml phenylmethylsulfonyl fluoride (PMSF) and protease inhibitor cocktail (Roche, 1:100 dilution)] and placed on ice for 30 min (vortexing once after 15 min). After 30 minutes, the samples were centrifuged at 13,000×g for 10 minutes at 4° C. The supernatants containing total protein were measured for protein concentration using Bio-Rad Protein Assay Dye Reagent Concentrate Kit. 40 to […] was separated by sodium dodecyl sulfate-polyacrylamide gel electrophoresis (SDS-PAGE) (12% or 7.5%), followed by transfer to a nitrocellulose membrane. The membranes were blocked with 5% (w/v) non-fat dried skimmed milk powder in PBS supplemented with 0.05% Tween-20 (PBS-T) for 1 h at RT. Next, primary antibodies were added at 4° C. overnight or for 2 h at room temperature. Membranes were then incubated with secondary antibody for 1 h at RT and washed three times for 15 min each with PBS-T. Western Bright ECL (Advansta) was added to the membrane for 30-60 s and analyzed using Image Quant LAS-4000 (GE Healthcare Life Sciences) and Image Quant LAS-4000 software (GE Healthcare Life Sciences).

MCF10AT1K (M2) cells [2] = assay: TUNEL assay in M2 cells in 3D BME system; type: cell-based, Human; conditions: 40 μM, 24 h
Description: (§4) Cells were harvested from their growth plates using 0.25% trypsin EDTA. Collected cells were cultured in Cultrex® growth factor reduced Basement Membrane Extract (BME: Trevigen, Inc) as follows: An 8 chamber glass slide system (Lab-TEK® II, Naperville, IL) was coated with 60 μl BME [Barkan D. et al., Cancer Research (2008)](protein concentration between […]; thickness-1-2 mm). 5×10^3 cells per well were re-suspended in DMEM/F12 supplemented with 2.5% DHS and 2% BME and cultured on the coated slides. Slides were incubated at 37° C., 5% CO2 incubator. Cells were re-fed every 4 days. Cell morphology was monitored by light microscopy. Immunofluorescence images were captured by Nikon Al—R confocal laser scanning microscope (Haifa University, Haifa, Israel).
The cells were cultured as described above in 8 well chamber glass slides, fixed according to Barkan's immunofluorescence staining protocol and incubated for 1 hour with a mixture of TUNEL reaction mix according to the manufacturer's protocol (In Situ Cell death Detection Kit, TMR Red; Roche, Cat #12-156-792-910) covered with aluminum foil and placed in the 37° C., 5% CO2 incubator. Following incubation, slides were washed three times with PBS for 5 minutes each, and mounted with […] mounting medium with DAPI. DAPI stain was used to assess total cell number. […]

MCF10AT1K (M2) cells [3] = assay: 3D BME culture of M2 organoids, light microscopy; type: cell-based, Human
Description: as §4

[4] = target: T2, interaction between ARTS and Bcl2 (Homo sapiens, UniProt P10415); assay: BiFC assay between ARTS and Bcl-2; type: cell-based; conditions: 20 μM
T2 construct: expressed in transfected cells; host or cells: A-375 or HeLa wt cells (the legend names both)
T2 sequence (P10415 whole entry): as above
Excerpt: as §1

With `Cn1ccnc1C(=O)c1ccc(NC(=O)C(=O)N[C@H](CO)Cc2ccccc2)cc1` [B3, (S)-N1-(1-hydroxy-3-phenylpropan-2-yl)-N2-(4-(1-methyl-1H-imidazole-2-carbonyl)phenyl)oxalamide] the “binding of XIAP to Bcl-2” value (binding of XIAP to Bcl-2) was “slightly increased; also recorded: increased”, the “sensitivity of cancer cell lines to B3” value (93 cancer cell lines) was “sensitive” and the GI50 (A-375 cells) was 14.8 µM. For the same molecule, the Bcl-2 levels ([1]; 20 μM, 24 hrs) was “clearly reduced”, the XIAP levels ([1]; 20 μM, 24 hrs) was “clearly reduced” and the “cleavage of Caspase 3” value ([1]; 20 μM, 24 hrs) was “increased”. The “cleavage of Caspase 9” value ([1]; 20 μM, 24 hrs) was “increased”, the “cleavage of PARP” value ([1]; 20 μM, 24 hrs) was “increased” and the MDM2 levels ([1]; 20, 30, 40 μM B3, 24 hours) was “reduction”. For the same molecule, the XIAP levels ([1]; 20, 30, 40 μM B3, 24 hours) was “reduction”, the “cPARP or caspase3” value ([1]; 20, 30, 40 μM B3, 24 hours) was “elevation” and the p53 levels ([1]; 20, 30, 40 μM B3, 24 hours) was “elevation”. The ARTS levels ([1]; B3 in combined treatment with ABT-199, 24 hrs) was “downregulated”, the Bcl-2 levels ([1]; six hours of B3 treatment) was “decreased” and the “number of cells positive for TUNEL staining” value (MCF10AT1K (M2) cells [2]) was “significant increase”. The “cellular death (blebbing, cell shrinkage)” value (MCF10AT1K (M2) cells [3]; 40 μM, 24 h) was “induced cellular death”, the “cellular death (blebbing, cell shrinkage)” value (MCF10AT1K (M2) cells [3]; increasing concentrations, 7 days, dose dependent) was “induced cellular death” and the “binding of ARTS to Bcl-2” value ([4]; 3 hours) was “increase”. For the same molecule, the “binding of ARTS to Bcl-2” value ([4]; 24 hours) was “no effect”.
